Results from ChEMBL document CHEMBL3991601, “The target landscape of clinical kinase drugs” (Science, 2017).
Active and inactive are the calls of the source.

Assays:
[1] = target: Guanine nucleotide-binding protein G(i) subunit alpha-2 (Homo sapiens, UniProt P04899)
Myosin-10 = Myosin-10 (Homo sapiens, UniProt P35580)
[2] = target: Cyclin-dependent kinase 2 (Homo sapiens, UniProt P24941)
[3] = target: T1, Protein kinase C zeta type (Homo sapiens, UniProt Q05513)
T1 sequence (Q05513 whole entry): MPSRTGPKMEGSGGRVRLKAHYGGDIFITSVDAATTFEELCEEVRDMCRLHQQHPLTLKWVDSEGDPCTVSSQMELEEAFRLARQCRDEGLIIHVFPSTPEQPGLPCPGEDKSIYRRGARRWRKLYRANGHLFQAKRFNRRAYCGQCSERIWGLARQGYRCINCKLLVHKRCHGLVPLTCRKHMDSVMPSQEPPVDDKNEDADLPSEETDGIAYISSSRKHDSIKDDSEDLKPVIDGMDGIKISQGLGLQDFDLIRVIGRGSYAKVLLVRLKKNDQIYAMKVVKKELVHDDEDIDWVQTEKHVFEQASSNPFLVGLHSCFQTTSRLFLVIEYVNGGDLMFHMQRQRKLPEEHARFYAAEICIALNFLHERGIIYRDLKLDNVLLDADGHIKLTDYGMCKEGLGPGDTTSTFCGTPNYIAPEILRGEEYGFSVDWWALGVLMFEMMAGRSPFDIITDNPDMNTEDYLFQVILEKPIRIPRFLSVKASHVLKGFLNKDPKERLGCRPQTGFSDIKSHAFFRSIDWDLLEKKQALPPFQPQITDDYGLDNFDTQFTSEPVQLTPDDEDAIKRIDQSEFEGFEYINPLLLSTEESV

[4] = target: T2, Dual specificity protein kinase TTK (Homo sapiens, UniProt P33981)
T2 sequence (P33981 whole entry): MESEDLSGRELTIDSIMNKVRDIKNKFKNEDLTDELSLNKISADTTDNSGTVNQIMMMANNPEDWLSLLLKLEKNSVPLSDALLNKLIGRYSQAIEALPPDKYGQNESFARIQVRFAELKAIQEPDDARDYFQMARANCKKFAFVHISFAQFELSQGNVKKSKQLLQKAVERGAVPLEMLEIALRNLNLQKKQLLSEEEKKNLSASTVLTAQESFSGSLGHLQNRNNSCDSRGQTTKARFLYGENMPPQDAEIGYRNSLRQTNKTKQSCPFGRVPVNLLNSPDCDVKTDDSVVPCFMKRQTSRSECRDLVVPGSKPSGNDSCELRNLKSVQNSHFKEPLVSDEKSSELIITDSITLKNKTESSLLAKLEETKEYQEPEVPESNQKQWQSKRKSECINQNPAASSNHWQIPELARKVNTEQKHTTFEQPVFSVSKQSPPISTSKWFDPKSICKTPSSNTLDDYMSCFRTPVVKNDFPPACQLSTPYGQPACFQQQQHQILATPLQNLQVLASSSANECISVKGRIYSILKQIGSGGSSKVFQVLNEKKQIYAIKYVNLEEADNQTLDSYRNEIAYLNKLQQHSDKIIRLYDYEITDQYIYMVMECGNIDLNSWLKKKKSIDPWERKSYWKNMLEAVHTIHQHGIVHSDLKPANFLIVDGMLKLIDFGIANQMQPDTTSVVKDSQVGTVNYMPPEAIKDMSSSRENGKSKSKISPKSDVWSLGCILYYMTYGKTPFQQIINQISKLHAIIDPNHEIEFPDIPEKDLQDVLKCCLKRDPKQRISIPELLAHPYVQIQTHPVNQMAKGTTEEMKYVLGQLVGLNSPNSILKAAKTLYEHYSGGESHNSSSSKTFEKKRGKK

UMP-CMP kinase = target: T3, UMP-CMP kinase (Homo sapiens, UniProt P30085)
T3 sequence (P30085 whole entry): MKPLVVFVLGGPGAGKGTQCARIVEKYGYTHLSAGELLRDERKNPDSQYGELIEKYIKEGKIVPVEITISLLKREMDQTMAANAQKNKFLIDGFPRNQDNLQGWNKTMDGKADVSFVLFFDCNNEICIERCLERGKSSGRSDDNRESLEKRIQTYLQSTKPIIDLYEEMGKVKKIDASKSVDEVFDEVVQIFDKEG

[5] = target: Serine/threonine-protein kinase PLK1 (Homo sapiens, UniProt P53350)
[6] = target: T4, Thyroid hormone receptor-associated protein 3 (Homo sapiens, UniProt Q9Y2W1)
T4 sequence (Q9Y2W1 whole entry): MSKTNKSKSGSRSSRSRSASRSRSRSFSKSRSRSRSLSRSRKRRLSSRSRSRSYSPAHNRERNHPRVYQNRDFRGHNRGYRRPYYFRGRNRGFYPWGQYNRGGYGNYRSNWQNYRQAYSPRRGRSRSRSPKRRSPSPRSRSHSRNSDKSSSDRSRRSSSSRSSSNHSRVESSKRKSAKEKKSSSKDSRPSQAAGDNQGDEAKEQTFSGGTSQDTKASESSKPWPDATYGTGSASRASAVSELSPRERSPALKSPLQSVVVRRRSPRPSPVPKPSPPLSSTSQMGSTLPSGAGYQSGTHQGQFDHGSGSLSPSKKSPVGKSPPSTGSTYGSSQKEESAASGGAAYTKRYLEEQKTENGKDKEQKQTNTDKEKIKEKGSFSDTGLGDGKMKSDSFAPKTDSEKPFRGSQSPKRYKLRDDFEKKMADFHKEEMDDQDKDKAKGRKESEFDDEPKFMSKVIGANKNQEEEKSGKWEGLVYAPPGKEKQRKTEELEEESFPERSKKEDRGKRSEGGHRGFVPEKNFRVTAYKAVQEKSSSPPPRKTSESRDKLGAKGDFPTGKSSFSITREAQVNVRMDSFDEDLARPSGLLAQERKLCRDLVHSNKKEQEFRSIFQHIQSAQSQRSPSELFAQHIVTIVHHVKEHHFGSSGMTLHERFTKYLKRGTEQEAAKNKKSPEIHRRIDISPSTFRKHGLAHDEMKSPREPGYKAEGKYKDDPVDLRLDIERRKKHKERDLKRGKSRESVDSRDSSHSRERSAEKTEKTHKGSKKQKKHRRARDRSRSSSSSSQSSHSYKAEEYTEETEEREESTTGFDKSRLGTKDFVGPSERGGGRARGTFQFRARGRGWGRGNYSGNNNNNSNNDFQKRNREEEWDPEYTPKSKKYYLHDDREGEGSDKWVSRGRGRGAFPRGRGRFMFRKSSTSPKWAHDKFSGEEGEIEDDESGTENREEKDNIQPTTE

[7] = target: G protein-coupled receptor kinase 6 (Homo sapiens, UniProt P43250)
[8] = target: Epidermal growth factor receptor (Homo sapiens, UniProt P00533)

Measured: Kd
Further: in the data inactive means no Kd found up to 30 µM.

G protein-coupled receptor kinase 6, sequence (P43250 whole entry): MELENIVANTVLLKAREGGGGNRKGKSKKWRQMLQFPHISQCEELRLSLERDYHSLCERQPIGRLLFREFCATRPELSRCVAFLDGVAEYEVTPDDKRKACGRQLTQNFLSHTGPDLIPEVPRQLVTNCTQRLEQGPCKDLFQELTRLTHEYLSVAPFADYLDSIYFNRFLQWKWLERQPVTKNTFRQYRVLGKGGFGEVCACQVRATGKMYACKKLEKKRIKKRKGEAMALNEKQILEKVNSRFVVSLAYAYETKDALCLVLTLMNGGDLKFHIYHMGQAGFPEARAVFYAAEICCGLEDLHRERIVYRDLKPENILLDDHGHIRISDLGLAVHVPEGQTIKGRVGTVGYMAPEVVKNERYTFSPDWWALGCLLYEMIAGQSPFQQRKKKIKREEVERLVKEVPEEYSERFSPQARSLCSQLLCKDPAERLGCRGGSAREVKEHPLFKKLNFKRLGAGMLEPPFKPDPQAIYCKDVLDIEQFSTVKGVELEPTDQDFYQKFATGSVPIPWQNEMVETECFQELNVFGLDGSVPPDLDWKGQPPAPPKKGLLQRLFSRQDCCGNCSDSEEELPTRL
Epidermal growth factor receptor, sequence (P00533 whole entry): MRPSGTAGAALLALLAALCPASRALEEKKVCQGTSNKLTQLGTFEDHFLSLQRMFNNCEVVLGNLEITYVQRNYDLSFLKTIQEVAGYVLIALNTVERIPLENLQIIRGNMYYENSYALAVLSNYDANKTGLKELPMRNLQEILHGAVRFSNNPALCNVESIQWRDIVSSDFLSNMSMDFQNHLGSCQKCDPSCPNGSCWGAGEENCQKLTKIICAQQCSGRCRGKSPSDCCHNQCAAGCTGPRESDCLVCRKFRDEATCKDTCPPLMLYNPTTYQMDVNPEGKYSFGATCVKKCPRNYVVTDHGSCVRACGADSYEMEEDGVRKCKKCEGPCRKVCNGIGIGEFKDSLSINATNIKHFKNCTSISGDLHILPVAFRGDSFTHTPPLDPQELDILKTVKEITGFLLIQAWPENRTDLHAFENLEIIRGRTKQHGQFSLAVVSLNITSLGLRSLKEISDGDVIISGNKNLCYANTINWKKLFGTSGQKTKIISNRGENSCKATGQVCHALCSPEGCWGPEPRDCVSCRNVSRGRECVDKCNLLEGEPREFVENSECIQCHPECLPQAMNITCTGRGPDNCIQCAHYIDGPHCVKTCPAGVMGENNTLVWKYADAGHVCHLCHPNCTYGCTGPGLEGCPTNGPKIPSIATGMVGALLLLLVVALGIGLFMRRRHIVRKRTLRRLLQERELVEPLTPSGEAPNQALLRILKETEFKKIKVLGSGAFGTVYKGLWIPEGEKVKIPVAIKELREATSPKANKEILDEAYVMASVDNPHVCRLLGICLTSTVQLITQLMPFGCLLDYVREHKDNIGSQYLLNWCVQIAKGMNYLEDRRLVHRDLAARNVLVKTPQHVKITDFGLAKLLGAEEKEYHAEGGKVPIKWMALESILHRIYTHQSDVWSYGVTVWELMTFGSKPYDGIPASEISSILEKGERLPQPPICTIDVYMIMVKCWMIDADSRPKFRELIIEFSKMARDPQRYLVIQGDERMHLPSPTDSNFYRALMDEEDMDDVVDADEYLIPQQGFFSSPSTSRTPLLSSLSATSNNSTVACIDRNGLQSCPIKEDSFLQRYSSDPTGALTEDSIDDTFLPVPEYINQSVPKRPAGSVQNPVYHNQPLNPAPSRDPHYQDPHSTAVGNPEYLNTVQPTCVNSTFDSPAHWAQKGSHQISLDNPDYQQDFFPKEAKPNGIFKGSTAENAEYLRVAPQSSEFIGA
Guanine nucleotide-binding protein G(i) subunit alpha-2, sequence (P04899 whole entry): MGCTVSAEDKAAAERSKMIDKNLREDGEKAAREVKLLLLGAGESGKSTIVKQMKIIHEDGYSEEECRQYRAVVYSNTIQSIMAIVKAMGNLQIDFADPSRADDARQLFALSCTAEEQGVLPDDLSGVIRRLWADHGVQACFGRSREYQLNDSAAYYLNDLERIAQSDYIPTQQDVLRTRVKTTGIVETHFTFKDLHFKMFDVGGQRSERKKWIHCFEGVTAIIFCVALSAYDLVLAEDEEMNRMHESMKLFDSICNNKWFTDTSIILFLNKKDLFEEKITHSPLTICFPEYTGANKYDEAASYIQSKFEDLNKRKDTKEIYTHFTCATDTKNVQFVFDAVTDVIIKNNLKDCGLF
Serine/threonine-protein kinase PLK1, sequence (P53350 whole entry): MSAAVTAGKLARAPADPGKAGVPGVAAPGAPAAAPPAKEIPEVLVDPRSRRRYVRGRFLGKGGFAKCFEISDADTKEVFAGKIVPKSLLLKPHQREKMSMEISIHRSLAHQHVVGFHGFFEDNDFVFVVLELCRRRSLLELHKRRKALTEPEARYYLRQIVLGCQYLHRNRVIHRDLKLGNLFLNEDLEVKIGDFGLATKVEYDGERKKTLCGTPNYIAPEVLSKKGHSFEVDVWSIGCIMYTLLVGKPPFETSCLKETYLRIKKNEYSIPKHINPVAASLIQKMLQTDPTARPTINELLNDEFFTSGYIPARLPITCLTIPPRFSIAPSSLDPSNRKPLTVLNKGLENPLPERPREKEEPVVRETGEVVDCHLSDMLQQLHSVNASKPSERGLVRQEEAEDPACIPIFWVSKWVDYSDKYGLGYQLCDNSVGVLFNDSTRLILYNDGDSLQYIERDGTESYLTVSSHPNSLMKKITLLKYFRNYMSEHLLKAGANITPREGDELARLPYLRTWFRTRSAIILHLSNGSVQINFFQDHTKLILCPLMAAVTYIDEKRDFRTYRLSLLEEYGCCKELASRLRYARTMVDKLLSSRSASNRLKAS
Myosin-10, sequence (P35580 whole entry): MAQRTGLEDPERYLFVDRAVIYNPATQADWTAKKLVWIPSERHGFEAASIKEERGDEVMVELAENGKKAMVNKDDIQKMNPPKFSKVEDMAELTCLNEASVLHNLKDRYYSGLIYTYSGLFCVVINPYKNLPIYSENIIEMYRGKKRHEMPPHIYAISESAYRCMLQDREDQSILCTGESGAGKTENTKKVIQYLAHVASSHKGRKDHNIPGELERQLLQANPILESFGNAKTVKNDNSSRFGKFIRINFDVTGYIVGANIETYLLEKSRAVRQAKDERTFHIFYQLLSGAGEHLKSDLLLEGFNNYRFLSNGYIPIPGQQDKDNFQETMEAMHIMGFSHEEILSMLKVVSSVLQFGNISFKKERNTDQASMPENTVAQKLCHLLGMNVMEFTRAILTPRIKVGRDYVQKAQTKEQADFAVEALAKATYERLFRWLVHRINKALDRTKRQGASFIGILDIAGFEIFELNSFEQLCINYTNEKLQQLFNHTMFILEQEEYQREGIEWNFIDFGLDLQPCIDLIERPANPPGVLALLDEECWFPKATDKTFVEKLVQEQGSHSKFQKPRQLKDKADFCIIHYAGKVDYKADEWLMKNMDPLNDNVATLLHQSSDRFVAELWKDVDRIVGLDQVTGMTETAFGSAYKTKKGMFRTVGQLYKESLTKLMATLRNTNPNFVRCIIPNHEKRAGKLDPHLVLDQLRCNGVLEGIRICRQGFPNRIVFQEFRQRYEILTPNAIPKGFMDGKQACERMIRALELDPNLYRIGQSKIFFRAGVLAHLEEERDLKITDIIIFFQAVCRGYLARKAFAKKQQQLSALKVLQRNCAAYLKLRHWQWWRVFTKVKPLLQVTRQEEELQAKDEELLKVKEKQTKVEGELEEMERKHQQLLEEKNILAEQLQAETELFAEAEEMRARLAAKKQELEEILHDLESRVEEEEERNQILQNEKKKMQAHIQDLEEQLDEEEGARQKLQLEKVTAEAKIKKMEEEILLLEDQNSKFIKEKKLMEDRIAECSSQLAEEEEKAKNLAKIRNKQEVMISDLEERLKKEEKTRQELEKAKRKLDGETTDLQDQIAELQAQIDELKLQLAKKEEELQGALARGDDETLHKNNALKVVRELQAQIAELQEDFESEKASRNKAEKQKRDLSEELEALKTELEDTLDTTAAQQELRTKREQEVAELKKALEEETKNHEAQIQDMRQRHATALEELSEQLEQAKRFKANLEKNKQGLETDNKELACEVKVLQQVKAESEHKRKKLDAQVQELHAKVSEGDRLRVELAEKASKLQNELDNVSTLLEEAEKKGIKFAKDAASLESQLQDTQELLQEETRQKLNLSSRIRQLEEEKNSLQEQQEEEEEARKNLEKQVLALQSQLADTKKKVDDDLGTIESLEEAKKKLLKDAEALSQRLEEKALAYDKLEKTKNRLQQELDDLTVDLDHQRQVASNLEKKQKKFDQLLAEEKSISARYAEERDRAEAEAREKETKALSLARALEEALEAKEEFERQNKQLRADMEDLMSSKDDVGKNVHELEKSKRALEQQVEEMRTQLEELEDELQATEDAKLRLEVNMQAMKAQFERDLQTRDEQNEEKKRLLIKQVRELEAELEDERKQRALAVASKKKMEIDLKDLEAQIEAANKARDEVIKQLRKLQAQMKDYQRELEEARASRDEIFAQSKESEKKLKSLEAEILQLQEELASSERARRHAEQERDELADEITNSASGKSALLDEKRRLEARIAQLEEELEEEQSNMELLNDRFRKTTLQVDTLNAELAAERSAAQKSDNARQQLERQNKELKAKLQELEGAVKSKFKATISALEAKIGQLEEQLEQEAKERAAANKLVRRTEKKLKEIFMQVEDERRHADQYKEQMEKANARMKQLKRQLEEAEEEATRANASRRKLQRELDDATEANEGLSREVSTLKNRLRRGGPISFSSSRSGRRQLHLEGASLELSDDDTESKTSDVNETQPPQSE

Cc1ccc(NC(=O)c2ccc(CN3CC[C@H](N(C)C)C3)c(C(F)(F)F)c2)cc1Nc1nccc(-c2cncnc2)n1 [BAFETINIB]
inactive: [1] > 30 µM | Myosin-10 > 30 µM | [2] > 30 µM | [3] > 30 µM | [4] > 30 µM | UMP-CMP kinase > 30 µM | [5] > 30 µM | [6] > 30 µM | [7] > 30 µM | [8] > 30 µM

Cc1cc([C@@H](C)Nc2ccccc2C(=O)O)c2nc(N3CCOCC3)cc(=O)n2c1 [AZD-6482]
inactive: [1] > 30 µM | Myosin-10 > 30 µM | [2] > 30 µM | [3] > 30 µM | [4] > 30 µM | UMP-CMP kinase > 30 µM | [5] > 30 µM | [6] > 30 µM | [7] > 30 µM | [8] > 30 µM
